Patent US20070004727A1, “Use of compounds for the prevention of drug-induced cell toxicity” (Reception ApS c/o Ostysk Innovation A/S, priority 2003, published 2007)

System: uptake of gentamicin into the mouse kidneys
Experiment: Gentamicin uptake in mouse kidneys following i.p. administration of the compound
Format: in vivo
Conditions: for Effect of the inhibitors on the uptake of gentamicin into the mouse kidneys: 3 mg of inhibitor intraperitoneally in mice, as in Example 1 (FIG. 6), ranked among six inhibitors tested
Experimental: The effect of a compound, 2-[4-(2-aminoethyl)piperazin-1-yl]ethylamine (Aldrich, D2,340-8, lot 06028BO-332), according to the invention was tested in vivo. Gentamicin uptake in mouse kidneys following intraperitoneal (i.p.) administration of the compound was measured.
For normal application of radioactive gentamicin the following was performed: I.p. injection of 50 micrograms per kg of tritiated gentamicin with or without 3 mg of the inhibitor per mouse.
For competition of clinical doses of gentamicin 50 micrograms/kg of tritiated gentamicin plus 5 mg/kg of cold gentamicin (clinical dose) were injected in admixture with 3 mg total of 2-[4-(2-aminoethyl)piperazin-1-yl]ethylamine per mouse. A control received gentamicin only.
In this experiment 3 mg of the inhibitors 3-methylamino-1-(4-methylpiperazino)-2-propanole, 4-piperazinoaniline, piperazin-2-one-HCl, 2-[4-(2-aminoethyl)piperazin-1-yl]ethylamine, piperazine anhydrous, and 0.5 mg of 1-(3-chlorophenyl)piperazine diHCl (m-CPP), respectively, were administered intraperitoneally in mice (see FIG. 6) as described in Example 1. The effect of the inhibitors on the uptake of gentamicin into the mouse kidneys was determined by means of the assay described in Example 1.

In the case of `C1CNCCN1` [piperazine anhydrous], the “Effect of the inhibitors on the uptake of gentamicin into the mouse kidneys” value (“Effect of the inhibitors” below) was “strongest gentamicin inhibitors”.
In the case of `NCCN1CCN(CCN)CC1` [2-[4-(2-aminoethyl)piperazin-1-yl]ethylamine], the “Effect of the inhibitors” value was “strongest gentamicin inhibitors” and the “Inhibition (of gentamicin uptake in mouse kidneys) compared to the control” value (i.p., 50 micrograms/kg tritiated gentamicin plus 5 mg/kg cold gentamicin (clinical dose) in admixture with 3 mg total of compound per mouse, control received gentamicin only) was 40%.
`Cl.O=C1CNCCN1` [piperazin-2-one-HCl] was tested, and the “Effect of the inhibitors” value was “strongest gentamicin inhibitors”.
